# Results as given in patent US20230321101A1, “METHODS AND USES OF HALOFUGINONE” (The Regents of the University of California, priority 2020, published 2023).
# pEC50, pIC50: −log10 of the molar value. Entries after “also recorded” stand apart in the source; their conditions may differ. Read-outs that look alike come from different tables or passages of the source.
# Experiments:
# [1] = test system: DENV-2 (Dengue); experiment: DENV-2 antiviral immunofluorescence assay in Huh7 cells; assay type: cell-based
# Experimental: (§1) Experimental Procedure. The antiviral activity of 8 dilutions of each compound was explored by adding the drug to the assay cells 2 h after infection with the different viruses. Virus and compounds were left on the cells for the entire duration of the experiment (28 h for Zika virus and 24 h for all other viruses). The cytotoxicity of the same range of concentrations of compounds was determined by LDH release assay in the same cell lines.
# (§2) Cell plating. Cells were detached and counted following SOP-RA 003 and SOP-RA 004. Count was recorded in the Cell Count Logbook, Volume 1. For each virus four plates were seeded, two for the antiviral assay and two for the cytotoxicity assay. Cells were seeded in 100 μl/well of complete media at the following densities: • Huh7: 8,000 cells/well (Dengue) • SH-SY5Y: 10,000 cells/wells (Zika) • HeLa Tzmbl: 8,000 cells/well (HIV)
# (§3) Compounds dilutions. The 22.1 mM stocks were further diluted to 1 mM in DMSO by adding 211 μl of DMSO to 10 μl of compound. Three serial dilutions were prepared in different media for different viruses/cells. For each dilution, drugs were prepared at twice the final concentration in 50 μl volume, because they are diluted to the final concentration by an equal volume of virus or media.
# (§4) Infection. Cells were infected in 50 μl of supplemented media/well at the following multiplicity of infection (MOI): • DENV-2, MOI 1 • ZIKV, MOI 5 • HIV, MOI 0.5
# (§5) After removing culture media from cells, 50 μl of virus dilution were added to all wells except Column 11 (uninfected control), where the same volume of supplemented media was added. […]
# (§6) Infectivity readout. […] The primary antibodies were detected with an Alexa-488 conjugate secondary antibody (Life Technologies, A11001), and nuclei were stained with Hoechst. Images were acquired on a CellInsight CX5 high content platform (Thermo Scientific) using a 4× objective, and percentage infection calculated using CellInsight CX5 software (infected cells/total cells×100).
# (§7) Determination of % Inhibition—IF assay. Normalized percentages of inhibition were calculated using the following formula: […]
# [2] = test system: ZIKV (Zika virus); experiment: ZIKV antiviral immunofluorescence assay in SH-SY5Y cells; assay type: cell-based
# Experimental: as §1, §2, §3, §4, §5, §6, §7
# [3] = test system: HIV-1; experiment: HIV-1 antiviral immunofluorescence assay in HeLa Tzmbl cells; assay type: cell-based; conditions: HeLa Tzmbl
# Experimental: as §1, §2, §3, §4, §5, §6, §7
# [4] = test system: authentic SARS-CoV-2; experiment: microbe, parasite or virus in culture; assay type: cell-based
# [5] = test system: cell surface heparan sulfate of Hep3B cells; experiment: Heparan sulfate presentation by anti-HS mAb 10E4 staining of Hep3B cells; assay type: cell-based, human; conditions: for effect on halofuginone-induced reduction in heparan sulfate production (10E4 binding): co-incubated with halofuginone
# [6] = test system: Vero E6 cells; experiment: Cell number of Vero E6 cells treated for 24 h; assay type: cell-based, African green monkey; conditions: Vero E6, 24 h
# Experimental: FIG. 32A and FIG. 32B. […] A-B, Measurement of authentic SARS-CoV-2 infection and cell number in Vero E6 cells treated with (A) halofuginone (HF) or (B) the 2R,3S-(+) enantiomer for 24 h. Data shown as mean±S.D.
# [7] = test system: recombinant SARS-CoV-2 spike RBD protein binding to Hep3B cells; conditions: for decrease of SARS-CoV-2 RBD binding compared to excipient control (DMSO): 18 h; for effect on halofuginone-induced reduction in spike protein binding: co-incubated with halofuginone
# [8] = ProSA at 50 μM, halofuginone 500 nM
# [9] = Severe acute respiratory syndrome coronavirus 2, Vero C1008, read-out: IC50 of SARS-CoV-2 infection
smiles,measurement,setting,value
CC(C)(C)OC(=O)N1CCCC(O)[C@H]1CC(=O)Cn1cnc2cc(Br)c(Cl)cc2c1=O (stereo partly shown),antiviral activity against DENV-2,[1]; Huh7,did not display antiviral activity
same,antiviral activity against ZIKV,[2],did not display antiviral activity
same,antiviral activity against HIV-1,[3],did not display antiviral activity
"O=C(CC1NCCCC1O)Cn1cnc2cc(Br)c(Cl)cc2c1=O (single isomer, unassigned) [2S,3R-(−)enantiomer]",effect on authentic SARS-CoV-2 infection,[4]; Vero E6,No inhibition was observed
"O=C(C[C@H]1NCCC[C@@H]1O)Cn1cnc2cc(Br)c(Cl)cc2c1=O [2R,3S-(+) halofuginone]",effect on heparan sulfate presentation (10E4 binding),[5],inhibited HS production
same,effect on authentic SARS-CoV-2 infection,[4]; Vero E6,inhibit SARS-CoV-2 infection
same,pIC50,"[4]; Vero E6, read-out: IC50 of SARS-CoV-2 infectivity, enantiomer comparison",7.92
same,cell proliferation (cell number),[6],inhibit SARS-CoV-2 infection and cell proliferation
same,effect on spike (RBD) protein binding,[7],inhibited HS production and authentic SARS-CoV-2 spike RBD protein binding
Nc1ncn([C@@H]2O[C@H](CO)[C@@H](O)[C@H]2O)c(=O)n1 [5-Azacytidine],effect on heparan sulfate presentation (10E4 binding),[5],reduced heparan sulfate presentation
Nc1ncn([C@H]2C[C@H](O)[C@@H](CO)O2)c(=O)n1 [5-Azadeoxycitidine],effect on heparan sulfate presentation (10E4 binding),[5],reduced heparan sulfate presentation
Nc1ncnc2c1c(I)cn2[C@@H]1O[C@H](CO)[C@@H](O)[C@H]1O [5-Iodotubercidin],effect on heparan sulfate presentation (10E4 binding),[5],reduced heparan sulfate presentation
CNC(=O)Nc1ccc2c(c1)CC[C@@]21OC(=O)N(CC(=O)N(Cc2ccc(F)cc2)[C@@H](C)C(F)(F)F)C1=O [A-485],effect on heparan sulfate presentation (10E4 binding),[5],reduced heparan sulfate presentation
O=C(/C=C/c1cccc(S(=O)(=O)Nc2ccccc2)c1)NO [Belinostat],effect on heparan sulfate presentation (10E4 binding),[5],increased 10E4 staining
same,effect on spike (RBD) protein binding,[7],reduced spike protein by more than two-fold
same,decrease of SARS-CoV-2 RBD binding compared to excipient control (DMSO),[7]; 5 μM,~50%
c1nn(C2CCOCC2)cc1Nc1ncc2nnn(-c3ccc4cn[nH]c4c3)c2n1 [GCN2-IN-1],effect on heparan sulfate presentation (10E4 binding),[5],reduced in heparan sulfate production; also recorded: reduced 10E4 and spike RBD binding almost to the same extent as halofuginone
same,effect on halofuginone-induced reduction in heparan sulfate production (10E4 binding),[5],reversed the halofuginone induced reduction in 10E4 or spike protein binding
same,effect on halofuginone-induced reduction in spike protein binding,[7],reversed the halofuginone induced reduction in 10E4 or spike protein binding
Cn1cc(-c2ccc3c(c2)CCN3C(=O)Cc2cccc(C(F)(F)F)c2)c2c(N)ncnc21 [GSK2606414],effect on heparan sulfate presentation (10E4 binding),[5],Neither PERKi nor ISRIB affected 10E4 or spike RBD binding
same,effect on halofuginone-induced reduction in heparan sulfate production (10E4 binding),[5],reversed the halofuginone induced reduction in 10E4 or spike protein binding
same,effect on halofuginone-induced reduction in heparan sulfate production (10E4 binding),[5]; listed as PERKi,unable to attenuate the halofuginone-induced reduction in heparan sulfate production
same,effect on spike (RBD) protein binding,[7],Neither PERKi nor ISRIB affected 10E4 or spike RBD binding
same,effect on halofuginone-induced reduction in spike protein binding,[7],reversed the halofuginone induced reduction in 10E4 or spike protein binding
same,effect on halofuginone-induced reduction in spike protein binding,[7]; listed as PERKi,unable to attenuate the halofuginone-induced reduction in heparan sulfate production and Spike protein binding
O=C(COc1ccc(Cl)cc1)NC1CCC(NC(=O)COc2ccc(Cl)cc2)CC1 (stereo not shown) [ISRIB],effect on heparan sulfate presentation (10E4 binding),[5],Neither PERKi nor ISRIB affected 10E4 or spike RBD binding
same,effect on halofuginone-induced reduction in heparan sulfate production (10E4 binding),[5],unable to attenuate the halofuginone-induced reduction in heparan sulfate production; also recorded: nor ISRIB reversed the halofuginone induced reduction in 10E4 or spike protein binding
same,effect on spike (RBD) protein binding,[7],Neither PERKi nor ISRIB affected 10E4 or spike RBD binding
CC(C)(C)OC(=O)N1CCC[C@H](O)[C@H]1CC(=O)Cn1cnc2cc(Br)c(Cl)cc2c1=O [MAZ1310],effect on heparan sulfate presentation (10E4 binding),[5],had no effect
same,effect on authentic SARS-CoV-2 infection,[4]; Vero E6,did not have any activity
same,effect on spike (RBD) protein binding,[7],had no effect
"Nc1ncnc2c1ncn2[C@@H]1O[C@H](COS(=O)(=O)NC(=O)[C@@H]2CCCN2)[C@@H](O)[C@H]1O [ProSA, prolyl-sulfamoyl adenosine]",effect on heparan sulfate presentation,[5]; 1 μM,unable to inhibit heparan sulfate inhibition and Spike protein binding
same,effect on HS presentation (mAb 10E4 stain),[5]; [8],prevented HS presentation and spike RBD binding to similar levels as treatment with halofuginone
same,effect on authentic SARS-CoV-2 infection,[4]; Vero E6,inhibited authentic SARS-CoV-2 infection of Vero E6 cells; also recorded: inhibit infection by authentic SARS-CoV-2 when provided at higher doses
same,effect on Spike protein binding,[7]; 1 μM,unable to inhibit heparan sulfate inhibition and Spike protein binding
same,effect on spike RBD binding,[7]; [8],prevented HS presentation and spike RBD binding to similar levels as treatment with halofuginone
CCC(CC)COC(=O)[C@H](C)N[P@](=O)(OC[C@H]1O[C@@](C#N)(c2ccc3c(N)ncnn23)[C@H](O)[C@@H]1O)Oc1ccccc1 [Remdesivir],pIC50,[4]; [9],5.10
C/C=C1\NC(=O)[C@H]2CSSCC/C=C/[C@H](CC(=O)N[C@H](C(C)C)C(=O)N2)OC(=O)[C@H](C(C)C)NC1=O [Romidepsin],decrease of SARS-CoV-2 RBD binding compared to excipient control (DMSO),[7]; 1 μM,~50%
"Nc1ncnc2c1ncn2C1OC(COS(=O)(=O)NC(=O)[C@@H](N)CO)[C@@H](O)[C@H]1O (stereo partly shown) [SerSA, seryl-sulfamoyl adenosine]",effect on authentic SARS-CoV-2 infection,[4]; Vero E6,Neither of these AARS inhibitors were able to significantly attenuate viral replication
same,effect on spike (RBD) protein binding,[7],Neither of these AARS inhibitors were able to significantly attenuate
COc1cc2c(NC3CCN(C(C)C)CC3)nc(C3CCCCC3)nc2cc1OCCCN1CCCC1 [UNC0638],effect on heparan sulfate presentation (10E4 binding),[5],increased the total amount of heparan sulfate
C[C@@H]1C[C@H](C)C[C@H](C)[C@@H](O)CC(=O)O[C@H]([C@@H]2CCC[C@H]2C(=O)O)C/C=C/C=C(/C#N)[C@H](O)[C@@H](C)C1 [borrelidin],effect on heparan sulfate presentation (10E4 binding),[5],Inhibits HS production
same,effect on authentic SARS-CoV-2 infection,[4]; Vero E6,Neither of these AARS inhibitors were able to significantly attenuate viral replication
same,effect on spike (RBD) protein binding,[7],Neither of these AARS inhibitors were able to significantly attenuate
same,effect on spike (RBD) protein binding,[7]; listed as Borrelidin,not SARS-CoV-2 Spike RBD protein binding
CCN(CC)CCCC(C)Nc1ccnc2cc(Cl)ccc12 (stereo not shown) [chloroquine],pIC50,[4]; [9],5.72
O=c1c2cc(Cl)c(Br)cc2ncn1C[C@H](O)C[C@H]1NCCC[C@@H]1O [halofuginol],effect on heparan sulfate presentation (10E4 binding),[5],significantly decreased 10E4 and spike RBD binding
same,effect on authentic SARS-CoV-2 infection,[4]; Vero E6,inhibited authentic SARS-CoV-2 infection of Vero E6 cells; also recorded: inhibit infection by authentic SARS-CoV-2 when provided at higher doses
same,inhibition of DENV-2,"[1]; Huh7, highest concentration tested (1000 nM)",~60%
same,antiviral activity against ZIKV,[2],antiviral activity only against HIV-1
same,pEC50,"[3]; MOI 0.5, drug added 2 h after infection, 24 h, read-out: EC50 HIV-1",6.46
same,effect on spike (RBD) protein binding,[7],significantly decreased 10E4 and spike RBD binding
